# Results: PubChem BioAssay AID1195 (EPA DSSTox, 2008)
# Tested on: human maximum recommended daily dose, FDA database
# Experiment: DSSTox (FDAMDD) FDA Maximum (Recommended) Daily Dose Database
# Conditions: active compounds read low
# In short: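 MRDD values come from clinical trials with daily oral dosing, usually for 3–12 months, for the average adult, in mg/day converted to mg/kg-bw/day assuming 60 kg. Antineoplastic mg/m2 doses are divided by 37. Activity score maps log10(1/MRDD mmol) onto 1–100.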
# [1] = TherapeuticCategory: sedative, hypnotic
# [2] = TherapeuticCategory: antibacterial
# [3] = TherapeuticCategory: antihypertensive
# [4] = TherapeuticCategory: anthelmintic
structure (smiles),measurement,setting,value
CCC(=O)c1ccc2c(c1)N(CC(C)N(C)C)c1ccccc1S2 (stereo not drawn),maximum recommended daily dose (mmol/kg-bw/day),[1],0.00245
COc1cccc(C(=O)CCN[C@@H](C)[C@H](O)c2ccccc2)c1,maximum recommended daily dose (mmol/kg-bw/day),TherapeuticCategory: antianginal,0.00255
C#CC(O)(/C=C\Cl)CC (stereo not drawn),maximum recommended daily dose (mmol/kg-bw/day),[1],0.115
OC[C@H]1OC(O)[C@H](O)[C@@H](O)[C@H]1O (stereo partly drawn),maximum recommended daily dose (mmol/kg-bw/day),"TherapeuticCategory: diagnostic aid, hepatic function",0.555
NC[C@H]1O[C@H](O[C@H]2[C@H](O)[C@@H](O[C@H]3O[C@H](CO)[C@@H](O)[C@H](N)[C@H]3O)[C@H](N)C[C@@H]2N)[C@H](O)[C@@H](O)[C@@H]1O,maximum recommended daily dose (mmol/kg-bw/day),[2],0.031
NC(=O)OCC(O)COc1ccc(Cl)cc1 (stereo not drawn),maximum recommended daily dose (mmol/kg-bw/day),TherapeuticCategory: topical antifungal,0.163
CN(C)/N=N/c1nc[nH]c1C(N)=O,maximum recommended daily dose (mmol/kg-bw/day),TherapeuticCategory: antineoplastic,0.0247
Oc1c(I)cc(I)c2cccnc12,maximum recommended daily dose (mmol/kg-bw/day),TherapeuticCategory: antiamebic,0.0756
BrC(Br)Br,maximum recommended daily dose (mmol/kg-bw/day),"TherapeuticCategory: sedative, hypnotic, antitussive",0.0989
CCC1(CC)C(=O)NCC(C)C1=O (stereo not drawn),maximum recommended daily dose (mmol/kg-bw/day),[1],0.0364
CNC(=O)c1c(I)c(NC(=O)CCCCC(=O)Nc2c(I)c(C(=O)O)c(I)c(C(=O)NC)c2I)c(I)c(C(=O)O)c1I,maximum recommended daily dose (mmol/kg-bw/day),TherapeuticCategory: diagnostic aid,0.0798
CNC1(C)C2CCC(C2)C1(C)C (stereo not drawn),maximum recommended daily dose (mmol/kg-bw/day),[3],0.00249
CN(CCOc1ccc(CC2SC(=O)NC2=O)cc1)c1ccccn1 (stereo not drawn),maximum recommended daily dose (mmol/kg-bw/day),TherapeuticCategory: antidiabetic,0.000281
COCC(=O)O[C@]1(CCN(C)CCCc2nc3ccccc3[nH]2)CCc2cc(F)ccc2[C@@H]1C(C)C,maximum recommended daily dose (mmol/kg-bw/day),"TherapeuticCategory: antihypertensive, Ca channel blocker",0.00337
CCN(CC)CCC1(c2ccccc2)CCC(=O)NC1=O (stereo not drawn),maximum recommended daily dose (mmol/kg-bw/day),"TherapeuticCategory: anticholinergic, antiparkinsonian",0.00289
CCOC(=O)[C@H](CCc1ccccc1)N[C@@H](C)C(=O)N1Cc2cc(OC)c(OC)cc2C[C@H]1C(=O)O,maximum recommended daily dose (mmol/kg-bw/day),"TherapeuticCategory: antihypertensive, ACE inhibitor",0.00167
O=C(O)COc1ccc(C(=O)c2cccs2)c(Cl)c1Cl,maximum recommended daily dose (mmol/kg-bw/day),"TherapeuticCategory: diuretic, uricosuric, antihypertensive",0.0252
O=c1[nH]c(=O)n([C@H]2C[C@H](O)[C@@H](CO)O2)cc1F,maximum recommended daily dose (mmol/kg-bw/day),"TherapeuticCategory: antiviral, antineoplastic",0.00244
CCC1(c2ccccc2)C(=O)NC(=O)N(C)C1=O (stereo not drawn),maximum recommended daily dose (mmol/kg-bw/day),"TherapeuticCategory: anticonvulsant, sedative, hypnotic",0.0406
Oc1cc(O)c2c(c1)O[C@H](c1ccc(O)c(O)c1)[C@@H](O)C2,maximum recommended daily dose (mmol/kg-bw/day),"TherapeuticCategory: hepatoprotectant, antidiarrheal",0.115
CC(COc1ccccc1)N(CCCl)Cc1ccccc1 (stereo not drawn),maximum recommended daily dose (mmol/kg-bw/day),[3],0.00658
CC1(C)S[C@@H]2[C@H](NC(=O)[C@H](N)c3ccccc3)C(=O)N2[C@H]1C(=O)O,maximum recommended daily dose (mmol/kg-bw/day),[2],0.167
CC(=O)Oc1ccc(C(c2ccc(OC(C)=O)cc2)c2ccccn2)cc1,maximum recommended daily dose (mmol/kg-bw/day),TherapeuticCategory: cathartic,0.000692
Cc1cc(/C=C/c2ccc3cc(N(C)C)ccc3[n+]2C)c(C)n1-c1ccccc1,maximum recommended daily dose (mmol/kg-bw/day),[4],0.00434
CC(=O)N(c1onc(C)c1C)S(=O)(=O)c1ccc(N)cc1,maximum recommended daily dose (mmol/kg-bw/day),[2],0.216
CC(C)NCC1CCc2cc(CO)c([N+](=O)[O-])cc2N1 (stereo not drawn),maximum recommended daily dose (mmol/kg-bw/day),[4],0.215
CN1C(=O)CC(C)(c2ccccc2)C1=O (stereo not drawn),maximum recommended daily dose (mmol/kg-bw/day),TherapeuticCategory: anticonvulsant,0.0984
c1ccc2c(c1)Sc1ccccc1N2CC1CN2CCC1CC2 (stereo not drawn),maximum recommended daily dose (mmol/kg-bw/day),TherapeuticCategory: antihistaminic,0.000518
CC(N)Cc1ccc(O)cc1 (stereo not drawn),maximum recommended daily dose (mmol/kg-bw/day),"TherapeuticCategory: adrenergic, mydriatic",0.0265
CC(=O)O[C@H]1CC[C@@]2(C)C(=CC[C@@H]3[C@@H]2CC[C@]2(C)C(=O)CC[C@@H]32)C1,maximum recommended daily dose (mmol/kg-bw/day),TherapeuticCategory: androgen,0.0101
COC(=O)C(c1ccccc1)C1CCCCN1 (stereo not drawn),maximum recommended daily dose (mmol/kg-bw/day),TherapeuticCategory: CNS stimulant,0.00429
Cc1cc(=O)[nH]c(=S)[nH]1,maximum recommended daily dose (mmol/kg-bw/day),TherapeuticCategory: thyroid inhibitor,0.0703
CC1CC(OC(=O)C(O)c2ccccc2)CC(C)(C)C1 (stereo not drawn),maximum recommended daily dose (mmol/kg-bw/day),TherapeuticCategory: vasodilator,0.0966
NC(CO)C(=O)NNCc1ccc(O)c(O)c1O (stereo not drawn),maximum recommended daily dose (mmol/kg-bw/day),TherapeuticCategory: antiparkinsonian,0.0129
CC(CN(C)C)C(C)(O)Cc1ccc(Cl)cc1 (stereo not drawn),maximum recommended daily dose (mmol/kg-bw/day),TherapeuticCategory: antitussive,0.0156
O=C(O)P(=O)(O)O,maximum recommended daily dose (mmol/kg-bw/day),TherapeuticCategory: antiviral,0.625
CC(C)(Oc1ccc(Cl)cc1)C(=O)NC(=O)NCN1CCOCC1,maximum recommended daily dose (mmol/kg-bw/day),TherapeuticCategory: antithrombotic,0.112
Nc1ccc(C(=O)NCC(=O)O)cc1,maximum recommended daily dose (mmol/kg-bw/day),"TherapeuticCategory: anti inflammatory, antifungal",0.0515
